Measurements taken from the NIST ThermoML archive (doi:10.1016/j.jct.2009.07.005).

Legend:
[1] = xn = mol fraction of the nth substance listed; conditions: 101 kPa, Liquid, Small sample (50 mg) DSC
[2] = molar heat capacity at constant pressure; xn = mol fraction of the nth substance listed; conditions: 101 kPa, Liquid, Small sample (50 mg) DSC
[3] = molar heat capacity at constant pressure; conditions: 101.33 kPa, Liquid, Small sample (50 mg) DSC

C1CNCCN1 [piperazine] + O
Conditions	excess molar heat capacity, x1 = 0.05 [J/K/mol]	excess molar heat capacity, x1 = 0.1 [J/K/mol]	excess molar heat capacity, x1 = 0.15 [J/K/mol]	excess molar heat capacity, x1 = 0.2 [J/K/mol]	molar heat capacity at constant pressure, x1 = 0.05 [J/K/mol]	molar heat capacity at constant pressure, x1 = 0.1 [J/K/mol]	molar heat capacity at constant pressure, x1 = 0.15 [J/K/mol]	molar heat capacity at constant pressure, x1 = 0.2 [J/K/mol]
[1], 303.2 K	2.16	3.88	5.53	7.95	–	–	–	–
[1], 308.2 K	2.37	4.28	6.13	8.65	–	–	–	–
[1], 313.2 K	2.58	4.68	6.73	9.35	–	–	–	–
[1], 318.2 K	2.78	5.08	7.33	10.05	–	–	–	–
[1], 323.2 K	2.99	5.58	7.93	10.75	–	–	–	–
[1], 328.2 K	3.2	5.98	8.53	11.45	–	–	–	–
[1], 333.2 K	3.41	6.38	9.03	12.25	–	–	–	–
[1], 338.2 K	3.62	6.78	9.53	12.95	–	–	–	–
[1], 343.2 K	3.83	7.18	10.13	13.65	–	–	–	–
[1], 348.2 K	4.04	7.58	10.63	14.35	–	–	–	–
[1], 353.2 K	4.25	7.98	11.23	15.05	–	–	–	–
[2], 303.2 K	–	–	–	–	82.5	89.4	96.1	103.7
[2], 308.2 K	–	–	–	–	82.8	90	97	104.8
[2], 313.2 K	–	–	–	–	83.2	90.6	98	105.9
[2], 318.2 K	–	–	–	–	83.5	91.2	98.9	107.1
[2], 323.2 K	–	–	–	–	83.8	92	99.9	108.2
[2], 328.2 K	–	–	–	–	84.2	92.6	100.8	109.4
[2], 333.2 K	–	–	–	–	84.5	93.3	101.7	110.6
[2], 338.2 K	–	–	–	–	84.9	93.9	102.5	111.8
[2], 343.2 K	–	–	–	–	85.3	94.6	103.5	113
[2], 348.2 K	–	–	–	–	85.6	95.2	104.4	114.1
[2], 353.2 K	–	–	–	–	86	95.9	105.3	115.3

C1CNCCN1 [piperazine] + CN(CCO)CCO
Conditions	excess molar heat capacity, x1 = 0.1 [J/K/mol]	excess molar heat capacity, x1 = 0.2 [J/K/mol]	excess molar heat capacity, x1 = 0.3 [J/K/mol]	excess molar heat capacity, x1 = 0.4 [J/K/mol]	molar heat capacity at constant pressure, x1 = 0.1 [J/K/mol]	molar heat capacity at constant pressure, x1 = 0.2 [J/K/mol]	molar heat capacity at constant pressure, x1 = 0.3 [J/K/mol]	molar heat capacity at constant pressure, x1 = 0.4 [J/K/mol]
[1], 303.2 K	2.3	3.92	5.4	6.21	–	–	–	–
[1], 308.2 K	2.46	4.22	5.73	6.61	–	–	–	–
[1], 313.2 K	2.63	4.52	6.06	7.01	–	–	–	–
[1], 318.2 K	2.79	4.82	6.4	7.41	–	–	–	–
[1], 323.2 K	2.97	5.11	6.74	7.82	–	–	–	–
[1], 328.2 K	3.12	5.51	7.06	8.22	–	–	–	–
[1], 333.2 K	3.29	5.82	7.41	8.62	–	–	–	–
[1], 338.2 K	3.46	6.1	7.73	9.02	–	–	–	–
[1], 343.2 K	3.63	6.4	8.06	9.42	–	–	–	–
[1], 348.2 K	3.79	6.7	8.39	9.83	–	–	–	–
[1], 353.2 K	3.95	6.99	8.72	10.23	–	–	–	–
[2], 303.2 K	–	–	–	–	264.4	256.6	248.7	240.1
[2], 308.2 K	–	–	–	–	267.7	260	252	243.3
[2], 313.2 K	–	–	–	–	271.1	263.3	255.2	246.6
[2], 318.2 K	–	–	–	–	274.4	266.7	258.5	249.8
[2], 323.2 K	–	–	–	–	277.7	270	261.8	253
[2], 328.2 K	–	–	–	–	281	273.5	265.1	256.3
[2], 333.2 K	–	–	–	–	284.4	276.8	268.4	259.5
[2], 338.2 K	–	–	–	–	287.7	280.2	271.6	262.7
[2], 343.2 K	–	–	–	–	291.1	283.5	274.9	266
[2], 348.2 K	–	–	–	–	294.4	286.9	278.2	269.2
[2], 353.2 K	–	–	–	–	297.7	290.2	281.4	272.4

C1CNCCN1 [piperazine]
[3]
Conditions	molar heat capacity at constant pressure [J/K/mol]
393.2 K	216.3
398.2 K	218.7
403.2 K	220.5
408.2 K	222.8
413.2 K	225
